Data from patent US12577529B2, “Methods for producing neural cells” (QUIVER HOLDINGS INC., priority 2021, dated 2026).
pEC50: −log10 of the molar value.

Experiments:
[1] = tested on: NGN2 neurons (human iPS cell-derived excitatory neurons); experiment: Optopatch excitability assay in NGN2 neurons; assay type: cell-based
From the text: To characterize the intrinsic excitability activity of human iPS cell-derived excitatory neurons with the Optopatch platform the two iPS cell lines, “11a” and “20b”, from Example 1 were used. These two iPS cell lines were derived from two neurologically healthy male subjects. The 11a and 20b iPS cells are converted into excitatory neurons using a transcriptional programming approach whereby the pro-neuronal transcription factor NEUROGENIN2 (NGN2) is overexpressed using doxycycline responsive lentiviral constructs as described in Example 1. This process drives the rapid conversion of iPS cells into neurons that resemble cortical excitatory neurons.
The resulting neurons are cryopreserved and subsequently thawed.
The thawed cells are co-cultured with primary rodent glia to facilitate neuronal electrophysiological maturation. To enable Optopatch measurements, the cells are transduced with lentiviral constructs expressing Optopatch components driven by the neuronal excitatory promoter CAMK2A and signals are recorded from the cells 2 weeks later. At the time of Optopatch measurements, the NGN2 excitatory neuron are homogeneous and electrophysiologically active, yielding highly stereotyped and reproducible data across cells, dishes, differentiation rounds and cell lines.
Optopatch measurements are carried out in a custom-built ultra-widefield fluorescence microscope, as described herein. Using this platform, intrinsic excitability properties are recorded for 11a and 20b NGN2 neuronal cultures at DIV25 in the presence of synaptic blockers NBQX, D-AP5 and Gabazine to block AMPA, NMDA and GABA currents, respectively. A custom blue light stimulus protocol of three 500 ms blue light steps of increasing intensity (1, 15 and 75 mW/cm^2) followed by two 2 second ramps of linearly increasing intensity (0.5-10 mW/cm^2 and 0.5-110 mW/cm^2) is used to elicit a range of activity from individual neurons. ˜50 to 100 neurons are simultaneously stimulated and recorded in a single field of view.
High signal-to-noise ratio (SNR) fluorescence-time traces are generated, and action potentials can be detected with high fidelity. Individual action potentials are detected for each of the hundreds of neurons and recorded with Optopatch and plotted on a spike raster plot, where each row represents a single neuron, and each dot represents a detected spike. While individual neurons show a diversity of spiking behavior throughout the stimulus protocol, the average firing rate of the population is remarkably similar for both cell lines.
The sensitivity of an excitability assay for detecting pharmacological modulation in NGN2 neurons using the well-characterized compound quinidine, which is reported to increase spike width and reduce spike activity is tested. […] These changes can be observed in the individual traces at 10 μM and 30 μM quinidine.
Additional quantification of both the response to quinidine and retigabine in is determined using an Optopatch excitability assay. Quinidine has been reported to block several voltage-, Na^+ and Ca^++ gated potassium channels (KNa1.1, KCa5.1, K2P16.1, Kv1.5, Kv1.7, Kv10.1, Kv10.2), including two-pore forming channels as well as voltage gated Na^+ channels.

[2] = target: Kv7.2 (Homo sapiens, UniProt O43526); conditions: read-out: Kv7.2 EC50; cited from earlier work
[3] = maximum concentration tested (30 μM)

Sequence of Kv7.2 (O43526 whole entry): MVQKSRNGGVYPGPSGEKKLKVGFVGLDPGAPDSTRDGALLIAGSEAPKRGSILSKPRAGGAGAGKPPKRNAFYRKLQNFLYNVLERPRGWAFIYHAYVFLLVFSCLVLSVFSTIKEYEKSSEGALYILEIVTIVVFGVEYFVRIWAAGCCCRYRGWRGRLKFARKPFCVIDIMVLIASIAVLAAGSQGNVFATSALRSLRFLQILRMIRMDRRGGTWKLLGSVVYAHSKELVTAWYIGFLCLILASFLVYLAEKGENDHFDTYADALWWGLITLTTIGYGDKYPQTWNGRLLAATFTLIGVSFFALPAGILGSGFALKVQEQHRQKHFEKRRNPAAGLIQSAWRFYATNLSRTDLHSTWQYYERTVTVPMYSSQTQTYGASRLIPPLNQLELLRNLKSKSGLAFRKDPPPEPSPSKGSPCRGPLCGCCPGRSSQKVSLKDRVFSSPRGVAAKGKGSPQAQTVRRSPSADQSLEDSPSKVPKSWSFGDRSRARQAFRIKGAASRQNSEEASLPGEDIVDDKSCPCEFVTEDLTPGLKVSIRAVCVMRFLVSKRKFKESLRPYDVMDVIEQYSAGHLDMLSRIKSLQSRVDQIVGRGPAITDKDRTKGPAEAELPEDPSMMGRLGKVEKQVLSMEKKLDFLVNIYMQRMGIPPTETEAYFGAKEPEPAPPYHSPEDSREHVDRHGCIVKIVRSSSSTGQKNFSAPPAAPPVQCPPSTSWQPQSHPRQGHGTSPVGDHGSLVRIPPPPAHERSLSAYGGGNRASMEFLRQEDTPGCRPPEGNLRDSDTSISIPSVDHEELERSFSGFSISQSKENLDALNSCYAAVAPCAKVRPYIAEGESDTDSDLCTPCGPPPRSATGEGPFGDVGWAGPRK

Row | SMILES | changes to spike waveform and firing rate ([1]; acute addition, observed in individual traces at 10 μM and 30 μM) | broadening of the spikes ([1]; concentration dependent) | mean firing rate (spike rate) versus vehicle ([1]; different concentrations, with increased blue light stimulus) | spike rate ([1]; higher stimulation intensities (15 and 75 mW/cm^2)) | magnitude of the AhP depth (measured from the baseline fluorescence before the action potential) [1, 3] | spike rise time (measured from start to peak of the action potential) [1, 3] | spike width (measured from the base of the action potential) [1, 3] | time to the maximum of the after hyperpolarization (AhP) depth [1, 3] | pEC50 [2]
1 | C=C[C@H]1C[N@@]2CC[C@H]1C[C@@H]2[C@@H](O)c1ccnc2ccc(OC)cc12 [quinidine] | dramatic changes to both the spike waveform and firing rate | concentration dependent broadening of the spikes | dramatic reduction in spike rate | concentration dependent reduction in the spike rate | decreases | increases | increases | increases | –
2 | CCOC(=O)Nc1ccc(NCc2ccc(F)cc2)cc1N [retigabine] | – | – | – | – | – | – | – | – | 5.60
